Assay results reported in ChEMBL document CHEMBL5104147, “Biocatalytic synthesis and evaluation of antioxidant and antibacterial activities of hydroxyequols” (Bioorg Med Chem Lett, 2022).
≈ marks a conversion by molar mass, not a printed value.

Columns and labels:
Format in all cases: functional
[1] = Antioxidant activity assessed as DPPH radical scavenging activity by DPPH assay
Bacillus subtilis [2] = assay: Antibacterial activity against Bacillus subtilis assessed as inhibition of bacterial growth
Escherichia coli [3] = assay: Antibacterial activity against Escherichia coli assessed as inhibition of bacterial growth
Bacillus subtilis [4] = assay: Bactericidal activity against Bacillus subtilis assessed as decrease in cell survival
Escherichia coli [5] = assay: Bactericidal activity against Escherichia coli assessed as decrease in cell survival
[6] = Antioxidant activity assessed as trolox equivalent of DPPH radical scavenging activity by DPPH assay relative to trolox

SMILES | IC50 [1] | MIC (Bacillus subtilis [2]) | MIC (Escherichia coli [3]) | MBC (Bacillus subtilis [4]) | MBC (Escherichia coli [5]) | Ratio IC50 [6]
Cc1c(C)c2c(c(C)c1O)CCC(C)(C(=O)O)O2 (configuration not stated) [TROLOX] | 249 µM |  |  |  |  | 
Oc1ccc2c(c1)OC[C@H](c1ccc(O)c(O)c1)C2 | 250 µM | 256 µg/mL (≈ 991 µM) | 512 µg/mL (≈ 1980 µM) | 512 µg/mL (≈ 1980 µM) | 512 µg/mL (≈ 1980 µM) | 1.02
Oc1ccc([C@H]2COc3cc(O)ccc3C2)cc1 [AUS-131] | 52000 µM | 64 µg/mL (≈ 264 µM) | 256 µg/mL (≈ 1060 µM) | 256 µg/mL (≈ 1060 µM) | > 1020 µg/mL | 4.99 10^-3No_unit
Oc1ccc([C@H]2COc3cc(O)c(O)cc3C2)cc1 | 233 µM | 128 µg/mL (≈ 496 µM) | 64 µg/mL (≈ 248 µM) | 128 µg/mL (≈ 496 µM) | 64 µg/mL (≈ 248 µM) | 1.08
Oc1ccc([C@H]2COc3cc(O)c(O)cc3C2)cc1O | 112 µM | 256 µg/mL (≈ 933 µM) | 128 µg/mL (≈ 467 µM) | 256 µg/mL (≈ 933 µM) | > 1020 µg/mL | 2.28
O=c1c(-c2ccc(O)cc2)coc2cc(O)ccc12 [DAIDZEIN] |  | > 1020 µg/mL | > 1020 µg/mL |  |  | 
